Measurements from patent US4042707A, “3α-Arylhydroisoindoles” (E. I. Du Pont de Nemours and Company, priority 1976, dated 1977).
Structures can show the parent of a compound that is named as a salt.

What was measured:
[1] = system: phenylquinone-induced writhing; experiment: phenylquinone writhing (PQW) test, analgesic activity, oral, mice; assay type: in vivo; conditions: Mus musculus, fasted female white mice, phenylquinone i.p. at 23 or 30 min, ED50 for 50% of mice
Description: A standard procedure for detecting and comparing the analgesic acitivity of the compounds, for which there is good correlation with human efficacy, is the standard phenylquinone writhing (PQW) test modified from Siegmund, et al., Proc. Soc. Exp. Biol. Med. 95, 729 (1957). A test compound suspended in 1% methylcellulose was given orally to fasted (17-21 hours) female white mice, 5-20 animals per double blind test. Aqueous (0.01% phenyl-p-benzoquinone)phenylquinone was injected intraperitoneally at 23 or 30 minutes later using 0.25 ml per mouse. […] The effective analgesic dose for 50% of the mice (ED50) was calculated by the moving average method of Weil, Biometrics 8, 249 (1952).
(§1) Ideally a low ED50 dosage for PQW and a high ED50 dosage for ST (Straub Tail) is desired.

[2] = Straub Tail (ST), oral; conditions: mouse, in vivo, mice, high ED50 desired
Text: as §1
(§2) There is a close correlation between a drug's addiction liability and its ability to cause Straub tail in mice [Shemano and Wendel, Tox. Appl. Pharm., 6, 334-339 (1964)] at doses much below the LD50. […] This property is the basis of a test for detecting new narcotic antagonist drugs.

[3] = system: Straub tail induced by morphine sulfate; experiment: narcotic antagonist test: prevention of morphine-induced Straub tail in mice; assay type: in vivo; conditions: test drug s.c. 10 min before morphine sulfate 40 mg/kg s.c., observed 20 min, fasted female CF1 S mice; for ED50: Mus musculus, sc, read-out: ED50, prevention of 90° Straub tail (narcotic antagonism)
Description: as §2
17-21 Hour fasted female CF1 S mice 5 per dose were injected subcutaneously (loose skin inside hind limb) with test drug at 0.67, 2, 6, 18, 54, and 162 mg/kg in 0.20 ml 1% Methocel® per mouse. 10 Minutes later, a dosage of 40 mg/kg (base weight) of morphine sulfate in 0.20 ml 1% Methocel® per mouse was given subcutaneously (nape of neck). The mice were observed continuously for the next 20 minutes after the first mouse of a group of 30 had received morphine. Prevention of a 90° Straub tail during this observation period was taken as indication of narcotic antagonist ability. The table below gives the results for several compounds.

[4] = system: Straub tail in mice induced by morphine; conditions: Blumberg, Dayton, and Wolf 1968; cited from earlier work

| Structure (SMILES) | ED50 [1] | ED50 [2] | also measured |
| --- | --- | --- | --- |
| COc1cccc([C@]23CC(C)=C(C)C[C@@H]2CN(CC2CC2)C3)c1 (relative stereo) | 78 mg/kg | > 135 mg/kg | – |
| C=CCN1C[C@@H]2CC=CC[C@]2(c2ccccc2)C1 (relative stereo) | 140 mg/kg | > 200 mg/kg | – |
| CN1C[C@@H]2CC=CC[C@]2(c2ccccc2)C1 (relative stereo) | 32 mg/kg | > 162 mg/kg | – |
| CN1C[C@@H]2CCCC[C@]2(c2ccccc2)C1 (relative stereo) | 90 mg/kg | > 200 mg/kg | – |
| COc1cccc([C@]23CC=CC[C@H]2CN(CCc2ccccc2)C3)c1 (relative stereo) | 26 mg/kg | – | – |
| CC1=C(C)C[C@]2(c3cccc(O)c3)CN(CC3CC3)C[C@H]2C1 (relative stereo) [Example 2, N-Cyclopropylmethyl-3a-(m-hydroxyphenyl)-5,6-dimethyl-2,3,3a,4,7,7a-trans-hexahydroisoindole] | – | – | ED50 [3]: 5.2 mg/kg |
| Oc1cccc([C@]23CC=CC[C@H]2CN(CCc2ccccc2)C3)c1 (relative stereo) [Example 7, N-Phenethyl-3a-(m-hydroxyphenyl)-2,3,3a,4,7,7a-cis-hexahydroisoindole] | – | – | ED50 [3]: 43 mg/kg |
| Oc1cccc([C@]23CC=CC[C@H]2CN(CCc2ccccc2)C3)c1 (relative stereo) [Example 8, N-Phenethyl-3a-(m-hydroxyphenyl)-2,3,3a,4,7,7a-hexahydroisoindole Hydrochloride] | – | – | ED50, prevention of 90° Straub tail (narcotic antagonism) ([3]; Hydrochloride): 54 mg/kg |
| CC1=C(C)C[C@]2(c3cccc(O)c3)CN(CC3CC3)C[C@H]2C1 (relative stereo) [drawing 69] | 120 mg/kg | > 162 mg/kg | – |
| Oc1cccc([C@]23CC=CC[C@H]2CN(CCc2ccccc2)C3)c1 (relative stereo) [drawing 74] | 19 mg/kg | – | – |
| CC(C)=CCN1CCC2(C)c3cc(O)ccc3CC1C2C (stereo not shown) [Pentazocine, reference compound] | – | – | ED50 [3]: 4 mg/kg; prevention of the induction of Straub tail [4]: can prevent the induction of Straub tail |
| C=CCN1CC[C@]23c4c5ccc(O)c4O[C@H]2[C@@H](O)C=C[C@H]3[C@H]1C5 [nalorphine] | – | – | prevention of the induction of Straub tail [4]: can prevent the induction of Straub tail |
| C=CCN1CC[C@]23c4c5ccc(O)c4O[C@H]2C(=O)CC[C@@]3(O)[C@H]1C5 [naloxone] | – | – | prevention of the induction of Straub tail [4]: can prevent the induction of Straub tail |
